Target: MARK3 (human) (UniProt P27448)
Test: radiometric filter-binding kinase assay
Details: compound 100.0 µM; ATP 5 µM

Sequence of MARK3 (human) (P27448 whole entry, looked up): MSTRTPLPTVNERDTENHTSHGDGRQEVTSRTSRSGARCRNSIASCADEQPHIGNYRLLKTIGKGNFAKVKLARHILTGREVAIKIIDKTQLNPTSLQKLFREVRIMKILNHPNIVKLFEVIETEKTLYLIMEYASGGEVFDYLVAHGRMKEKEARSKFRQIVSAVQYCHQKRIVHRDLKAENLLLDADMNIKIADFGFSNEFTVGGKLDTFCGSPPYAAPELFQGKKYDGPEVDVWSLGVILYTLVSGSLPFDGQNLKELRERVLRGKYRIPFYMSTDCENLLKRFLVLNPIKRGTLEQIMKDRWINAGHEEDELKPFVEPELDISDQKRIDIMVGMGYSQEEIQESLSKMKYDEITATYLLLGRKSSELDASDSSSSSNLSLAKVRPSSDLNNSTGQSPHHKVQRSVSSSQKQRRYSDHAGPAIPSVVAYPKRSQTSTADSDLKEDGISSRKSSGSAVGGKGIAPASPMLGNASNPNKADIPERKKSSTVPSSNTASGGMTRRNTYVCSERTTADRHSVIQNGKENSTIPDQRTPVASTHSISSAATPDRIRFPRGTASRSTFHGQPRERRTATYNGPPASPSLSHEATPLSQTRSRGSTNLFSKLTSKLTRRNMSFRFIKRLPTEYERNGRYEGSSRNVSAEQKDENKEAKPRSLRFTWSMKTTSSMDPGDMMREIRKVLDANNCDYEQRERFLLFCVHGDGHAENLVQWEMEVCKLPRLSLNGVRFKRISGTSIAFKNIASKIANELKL

Row | SMILES | inhibition [%]
1 | CC(=O)Nc1nc2cnc(-c3ccccc3)cn2n1 | 38
2 | CC1CN(c2nc3ccccn3c(=O)c2N)CC(C)O1 (stereo not drawn) | 25
3 | O=C(c1cccc(-c2cc3c(=O)[nH]cnc3s2)c1)N1CCOCC1 | 29

Target: DAPK1 (human) (UniProt P53355)
Test: radiometric filter-binding kinase assay
Details: compound 100.0 µM; ATP 5 µM

Sequence of DAPK1 (human) (P53355 whole entry, looked up): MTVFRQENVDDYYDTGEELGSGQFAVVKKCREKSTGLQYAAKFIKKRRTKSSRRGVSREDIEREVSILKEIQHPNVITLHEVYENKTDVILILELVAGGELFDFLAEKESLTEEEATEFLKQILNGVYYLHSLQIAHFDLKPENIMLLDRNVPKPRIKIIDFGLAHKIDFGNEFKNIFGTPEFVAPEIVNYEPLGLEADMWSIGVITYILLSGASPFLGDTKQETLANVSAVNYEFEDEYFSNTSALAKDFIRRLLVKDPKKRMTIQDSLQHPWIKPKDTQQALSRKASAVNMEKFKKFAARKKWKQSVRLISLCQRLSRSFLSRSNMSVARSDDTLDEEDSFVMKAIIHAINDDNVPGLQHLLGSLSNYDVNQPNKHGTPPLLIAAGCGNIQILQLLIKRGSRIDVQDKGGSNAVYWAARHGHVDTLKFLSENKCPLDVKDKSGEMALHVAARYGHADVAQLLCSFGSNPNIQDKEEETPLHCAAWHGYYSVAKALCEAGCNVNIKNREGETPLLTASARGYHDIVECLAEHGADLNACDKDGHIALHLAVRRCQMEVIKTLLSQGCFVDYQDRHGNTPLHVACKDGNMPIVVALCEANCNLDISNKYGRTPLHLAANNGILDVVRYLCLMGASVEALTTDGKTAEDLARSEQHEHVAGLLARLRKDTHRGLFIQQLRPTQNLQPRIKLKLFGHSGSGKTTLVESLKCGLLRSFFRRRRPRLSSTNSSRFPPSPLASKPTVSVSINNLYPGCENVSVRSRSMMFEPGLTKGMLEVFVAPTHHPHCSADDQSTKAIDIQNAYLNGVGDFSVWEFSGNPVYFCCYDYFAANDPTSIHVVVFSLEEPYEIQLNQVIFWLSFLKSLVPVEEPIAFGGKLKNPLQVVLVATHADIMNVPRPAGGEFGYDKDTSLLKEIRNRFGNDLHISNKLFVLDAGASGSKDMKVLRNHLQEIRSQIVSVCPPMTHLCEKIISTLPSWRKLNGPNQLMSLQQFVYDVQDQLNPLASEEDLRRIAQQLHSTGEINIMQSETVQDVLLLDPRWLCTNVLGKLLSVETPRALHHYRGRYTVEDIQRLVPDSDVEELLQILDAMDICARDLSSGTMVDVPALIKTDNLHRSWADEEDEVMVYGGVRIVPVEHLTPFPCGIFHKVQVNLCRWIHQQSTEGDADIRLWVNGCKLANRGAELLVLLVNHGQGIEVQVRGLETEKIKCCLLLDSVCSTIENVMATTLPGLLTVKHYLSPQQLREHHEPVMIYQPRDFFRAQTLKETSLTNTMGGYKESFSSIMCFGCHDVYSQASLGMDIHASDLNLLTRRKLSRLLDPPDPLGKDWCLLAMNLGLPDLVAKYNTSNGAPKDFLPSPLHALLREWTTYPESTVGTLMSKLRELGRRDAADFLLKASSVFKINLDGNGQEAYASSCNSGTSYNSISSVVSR

Row | SMILES | inhibition [%]
4 | O=C(Nc1cnc2[nH]ccn2c1=O)c1ccccc1 | 16
5 | CC(C)(C)Nc1c(COCc2ccccc2)nc2[nH]cnn12 | 14
6 | CC(=O)Nc1nc2cnc(-c3ccccc3)cn2n1 | 12
7 | CC1CN(c2nc3ccccn3c(=O)c2N)CC(C)O1 (stereo not drawn) | 0
8 | O=C(c1cccc(-c2cc3c(=O)[nH]cnc3s2)c1)N1CCOCC1 | 0

Target: MAPK14 (human) (UniProt Q16539)
Test: radiometric filter-binding kinase assay
Details: compound 100.0 µM; ATP 50 µM

Row | SMILES | inhibition [%]
9 | O=C(Nc1cnc2[nH]ccn2c1=O)c1ccccc1 | 2
10 | CC(C)(C)Nc1c(COCc2ccccc2)nc2[nH]cnn12 | 5
11 | CC(=O)Nc1nc2cnc(-c3ccccc3)cn2n1 | 10
12 | CC1CN(c2nc3ccccn3c(=O)c2N)CC(C)O1 (stereo not drawn) | 0
13 | O=C(c1cccc(-c2cc3c(=O)[nH]cnc3s2)c1)N1CCOCC1 | 0

Target: NEK6 (human) (UniProt Q9HC98)
Test: radiometric filter-binding kinase assay
Details: compound 100.0 µM; ATP 50 µM

Row | SMILES | inhibition [%]
14 | O=C(Nc1cnc2[nH]ccn2c1=O)c1ccccc1 | 15
15 | CC(C)(C)Nc1c(COCc2ccccc2)nc2[nH]cnn12 | 0
16 | CC(=O)Nc1nc2cnc(-c3ccccc3)cn2n1 | 21
17 | CC1CN(c2nc3ccccn3c(=O)c2N)CC(C)O1 (stereo not drawn) | 0
18 | O=C(c1cccc(-c2cc3c(=O)[nH]cnc3s2)c1)N1CCOCC1 | 44

Target: GCK (human) (UniProt Q12851)
Test: radiometric filter-binding kinase assay
Details: compound 100.0 µM; ATP 20 µM

Sequence of GCK (human) (Q12851 whole entry, looked up): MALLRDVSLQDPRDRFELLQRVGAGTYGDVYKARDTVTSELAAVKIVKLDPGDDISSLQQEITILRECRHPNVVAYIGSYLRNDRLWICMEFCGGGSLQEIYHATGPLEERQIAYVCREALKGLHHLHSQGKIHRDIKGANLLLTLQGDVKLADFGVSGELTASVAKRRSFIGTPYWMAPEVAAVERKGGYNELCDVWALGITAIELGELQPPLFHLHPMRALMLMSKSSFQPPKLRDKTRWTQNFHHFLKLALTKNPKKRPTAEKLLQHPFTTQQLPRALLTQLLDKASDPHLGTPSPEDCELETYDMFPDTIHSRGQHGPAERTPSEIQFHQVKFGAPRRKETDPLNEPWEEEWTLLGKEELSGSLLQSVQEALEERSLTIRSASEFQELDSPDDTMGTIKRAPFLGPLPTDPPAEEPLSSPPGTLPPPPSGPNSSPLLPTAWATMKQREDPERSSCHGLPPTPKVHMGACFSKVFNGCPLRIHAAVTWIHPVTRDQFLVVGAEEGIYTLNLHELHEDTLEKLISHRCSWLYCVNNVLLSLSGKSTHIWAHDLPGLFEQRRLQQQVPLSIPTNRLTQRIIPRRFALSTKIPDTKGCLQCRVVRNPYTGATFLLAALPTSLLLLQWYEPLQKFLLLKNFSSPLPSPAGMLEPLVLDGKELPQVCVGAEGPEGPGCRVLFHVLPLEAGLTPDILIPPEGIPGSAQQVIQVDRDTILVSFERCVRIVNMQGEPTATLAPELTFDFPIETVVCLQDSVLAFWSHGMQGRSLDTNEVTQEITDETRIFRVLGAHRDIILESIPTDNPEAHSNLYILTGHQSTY

Row | SMILES | inhibition [%]
19 | O=C(Nc1cnc2[nH]ccn2c1=O)c1ccccc1 | 6
20 | CC(C)(C)Nc1c(COCc2ccccc2)nc2[nH]cnn12 | 0
21 | CC(=O)Nc1nc2cnc(-c3ccccc3)cn2n1 | 39
22 | CC1CN(c2nc3ccccn3c(=O)c2N)CC(C)O1 (stereo not drawn) | 0
23 | O=C(c1cccc(-c2cc3c(=O)[nH]cnc3s2)c1)N1CCOCC1 | 7

Target: MAPK9 (human) (UniProt P45984)
Test: radiometric filter-binding kinase assay
Details: compound 100.0 µM; ATP 20 µM

Row | SMILES | inhibition [%]
24 | O=C(Nc1cnc2[nH]ccn2c1=O)c1ccccc1 | 11
25 | CC(C)(C)Nc1c(COCc2ccccc2)nc2[nH]cnn12 | 10
26 | CC(=O)Nc1nc2cnc(-c3ccccc3)cn2n1 | 1
27 | CC1CN(c2nc3ccccn3c(=O)c2N)CC(C)O1 (stereo not drawn) | 6
28 | O=C(c1cccc(-c2cc3c(=O)[nH]cnc3s2)c1)N1CCOCC1 | 0

System: AKT2 (human), P31751 [S474D]
Test: radiometric filter-binding kinase assay
Details: compound 100.0 µM; ATP 50 µM

Row | SMILES | inhibition [%]
29 | O=C(Nc1cnc2[nH]ccn2c1=O)c1ccccc1 | 14
30 | CC(C)(C)Nc1c(COCc2ccccc2)nc2[nH]cnn12 | 39
31 | CC(=O)Nc1nc2cnc(-c3ccccc3)cn2n1 | 22
32 | CC1CN(c2nc3ccccn3c(=O)c2N)CC(C)O1 (stereo not drawn) | 24
33 | O=C(c1cccc(-c2cc3c(=O)[nH]cnc3s2)c1)N1CCOCC1 | 47

System: PAK2 (human), Q13177 [T402E]
Test: radiometric filter-binding kinase assay
Details: compound 100.0 µM; ATP 20 µM

Row | SMILES | inhibition [%]
34 | O=C(Nc1cnc2[nH]ccn2c1=O)c1ccccc1 | 12
35 | CC(C)(C)Nc1c(COCc2ccccc2)nc2[nH]cnn12 | 14
36 | CC(=O)Nc1nc2cnc(-c3ccccc3)cn2n1 | 0
37 | CC1CN(c2nc3ccccn3c(=O)c2N)CC(C)O1 (stereo not drawn) | 3
38 | O=C(c1cccc(-c2cc3c(=O)[nH]cnc3s2)c1)N1CCOCC1 | 0

System: SGK1 (human), O00141 [S422D]
Test: radiometric filter-binding kinase assay
Details: compound 100.0 µM; ATP 20 µM

Row | SMILES | inhibition [%]
39 | O=C(Nc1cnc2[nH]ccn2c1=O)c1ccccc1 | 1
40 | CC(C)(C)Nc1c(COCc2ccccc2)nc2[nH]cnn12 | 0
41 | CC(=O)Nc1nc2cnc(-c3ccccc3)cn2n1 | 16
42 | CC1CN(c2nc3ccccn3c(=O)c2N)CC(C)O1 (stereo not drawn) | 0
43 | O=C(c1cccc(-c2cc3c(=O)[nH]cnc3s2)c1)N1CCOCC1 | 14

Target: MAP3K11 (human) (UniProt Q16584)
Test: radiometric filter-binding kinase assay
Details: compound 100.0 µM; ATP 20 µM

Row | SMILES | inhibition [%]
44 | O=C(Nc1cnc2[nH]ccn2c1=O)c1ccccc1 | 40
45 | CC(C)(C)Nc1c(COCc2ccccc2)nc2[nH]cnn12 | 0
46 | CC(=O)Nc1nc2cnc(-c3ccccc3)cn2n1 | 17
47 | CC1CN(c2nc3ccccn3c(=O)c2N)CC(C)O1 (stereo not drawn) | 0
48 | O=C(c1cccc(-c2cc3c(=O)[nH]cnc3s2)c1)N1CCOCC1 | 23

Target: DYRK2 (human) (UniProt Q92630)
Test: radiometric filter-binding kinase assay
Details: compound 100.0 µM; ATP 50 µM

Row | SMILES | inhibition [%]
49 | O=C(Nc1cnc2[nH]ccn2c1=O)c1ccccc1 | 19
50 | CC(C)(C)Nc1c(COCc2ccccc2)nc2[nH]cnn12 | 6
51 | CC(=O)Nc1nc2cnc(-c3ccccc3)cn2n1 | 30
52 | CC1CN(c2nc3ccccn3c(=O)c2N)CC(C)O1 (stereo not drawn) | 40
53 | O=C(c1cccc(-c2cc3c(=O)[nH]cnc3s2)c1)N1CCOCC1 | 53

Target: HIPK3 (human) (UniProt Q9H422)
Test: radiometric filter-binding kinase assay
Details: compound 100.0 µM; ATP 20 µM

Row | SMILES | inhibition [%]
54 | O=C(Nc1cnc2[nH]ccn2c1=O)c1ccccc1 | 0
55 | CC(C)(C)Nc1c(COCc2ccccc2)nc2[nH]cnn12 | 1
56 | CC(=O)Nc1nc2cnc(-c3ccccc3)cn2n1 | 0
57 | CC1CN(c2nc3ccccn3c(=O)c2N)CC(C)O1 (stereo not drawn) | 0
58 | O=C(c1cccc(-c2cc3c(=O)[nH]cnc3s2)c1)N1CCOCC1 | 0

Target: PTK6 (human) (UniProt Q13882)
Test: radiometric filter-binding kinase assay
Details: compound 100.0 µM; ATP 20 µM

Row | SMILES | inhibition [%]
59 | O=C(Nc1cnc2[nH]ccn2c1=O)c1ccccc1 | 30
60 | CC(C)(C)Nc1c(COCc2ccccc2)nc2[nH]cnn12 | 21
61 | CC(=O)Nc1nc2cnc(-c3ccccc3)cn2n1 | 1
62 | CC1CN(c2nc3ccccn3c(=O)c2N)CC(C)O1 (stereo not drawn) | 21
63 | O=C(c1cccc(-c2cc3c(=O)[nH]cnc3s2)c1)N1CCOCC1 | 50

Target: MAPK13 (human) (UniProt O15264)
Test: radiometric filter-binding kinase assay
Details: compound 100.0 µM; ATP 5 µM

Sequence of MAPK13 (human) (O15264 whole entry, looked up): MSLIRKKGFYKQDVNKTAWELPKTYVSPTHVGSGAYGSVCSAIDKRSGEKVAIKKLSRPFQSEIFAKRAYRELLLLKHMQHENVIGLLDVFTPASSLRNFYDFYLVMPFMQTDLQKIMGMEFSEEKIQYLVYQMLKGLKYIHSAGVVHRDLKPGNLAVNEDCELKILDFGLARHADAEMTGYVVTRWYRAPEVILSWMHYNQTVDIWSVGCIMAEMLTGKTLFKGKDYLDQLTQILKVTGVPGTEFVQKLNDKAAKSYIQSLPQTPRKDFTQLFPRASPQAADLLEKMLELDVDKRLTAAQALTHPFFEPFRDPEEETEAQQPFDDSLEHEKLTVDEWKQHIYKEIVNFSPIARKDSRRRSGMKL

Row | SMILES | inhibition [%]
64 | O=C(Nc1cnc2[nH]ccn2c1=O)c1ccccc1 | 0
65 | CC(C)(C)Nc1c(COCc2ccccc2)nc2[nH]cnn12 | 0
66 | CC(=O)Nc1nc2cnc(-c3ccccc3)cn2n1 | 1
67 | CC1CN(c2nc3ccccn3c(=O)c2N)CC(C)O1 (stereo not drawn) | 0
68 | O=C(c1cccc(-c2cc3c(=O)[nH]cnc3s2)c1)N1CCOCC1 | 0

Target: PRKAA1 PRKAB2 PRKAG1 (human) (UniProt O43741+Q13131+P54619)
Test: radiometric filter-binding kinase assay
Details: compound 100.0 µM; ATP 20 µM

Sequence of PRKAA1 PRKAB2 PRKAG1 (human) (O43741 whole entry, looked up): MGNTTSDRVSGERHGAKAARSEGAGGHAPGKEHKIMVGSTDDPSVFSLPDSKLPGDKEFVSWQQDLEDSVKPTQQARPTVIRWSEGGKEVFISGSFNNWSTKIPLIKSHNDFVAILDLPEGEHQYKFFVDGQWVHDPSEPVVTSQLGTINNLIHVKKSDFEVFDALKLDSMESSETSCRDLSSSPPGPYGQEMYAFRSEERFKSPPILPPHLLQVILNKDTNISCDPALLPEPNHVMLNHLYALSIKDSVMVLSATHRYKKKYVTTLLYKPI
Sequence of PRKAA1 PRKAB2 PRKAG1 (human) (P54619 whole entry, looked up): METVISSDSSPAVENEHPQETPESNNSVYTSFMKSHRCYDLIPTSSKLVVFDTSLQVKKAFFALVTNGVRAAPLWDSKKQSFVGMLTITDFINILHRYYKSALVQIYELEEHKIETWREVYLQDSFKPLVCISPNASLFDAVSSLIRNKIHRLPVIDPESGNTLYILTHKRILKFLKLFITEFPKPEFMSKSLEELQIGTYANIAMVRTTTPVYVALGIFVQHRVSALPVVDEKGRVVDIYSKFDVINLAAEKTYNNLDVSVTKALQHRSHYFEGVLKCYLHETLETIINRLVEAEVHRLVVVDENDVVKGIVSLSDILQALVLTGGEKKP
Sequence of PRKAA1 PRKAB2 PRKAG1 (human) (Q13131 whole entry, looked up): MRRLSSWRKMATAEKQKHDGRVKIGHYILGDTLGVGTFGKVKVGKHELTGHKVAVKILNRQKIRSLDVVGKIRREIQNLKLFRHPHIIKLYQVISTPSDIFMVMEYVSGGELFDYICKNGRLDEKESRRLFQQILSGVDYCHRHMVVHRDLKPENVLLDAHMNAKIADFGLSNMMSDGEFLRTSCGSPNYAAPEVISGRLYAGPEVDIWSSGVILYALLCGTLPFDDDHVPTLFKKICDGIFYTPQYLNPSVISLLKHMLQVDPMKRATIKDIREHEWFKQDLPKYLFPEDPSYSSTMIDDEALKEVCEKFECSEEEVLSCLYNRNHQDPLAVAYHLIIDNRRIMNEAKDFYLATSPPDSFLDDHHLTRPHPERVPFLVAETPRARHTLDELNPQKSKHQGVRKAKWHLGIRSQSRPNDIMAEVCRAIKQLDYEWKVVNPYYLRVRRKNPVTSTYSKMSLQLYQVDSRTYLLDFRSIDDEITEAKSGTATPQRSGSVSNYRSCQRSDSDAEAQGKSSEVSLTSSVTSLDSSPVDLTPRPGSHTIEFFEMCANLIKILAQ

Row | SMILES | inhibition [%]
69 | O=C(Nc1cnc2[nH]ccn2c1=O)c1ccccc1 | 0
70 | CC(C)(C)Nc1c(COCc2ccccc2)nc2[nH]cnn12 | 18
71 | CC(=O)Nc1nc2cnc(-c3ccccc3)cn2n1 | 14
72 | CC1CN(c2nc3ccccn3c(=O)c2N)CC(C)O1 (stereo not drawn) | 2
73 | O=C(c1cccc(-c2cc3c(=O)[nH]cnc3s2)c1)N1CCOCC1 | 50

Target: IKBKB (human) (UniProt O14920)
Test: radiometric filter-binding kinase assay
Details: compound 100.0 µM; ATP 5 µM

Row | SMILES | inhibition [%]
74 | O=C(Nc1cnc2[nH]ccn2c1=O)c1ccccc1 | 0
75 | CC(C)(C)Nc1c(COCc2ccccc2)nc2[nH]cnn12 | 9
76 | CC(=O)Nc1nc2cnc(-c3ccccc3)cn2n1 | 10
77 | CC1CN(c2nc3ccccn3c(=O)c2N)CC(C)O1 (stereo not drawn) | 22
78 | O=C(c1cccc(-c2cc3c(=O)[nH]cnc3s2)c1)N1CCOCC1 | 37

Target: INSR (human) (UniProt P06213)
Test: radiometric filter-binding kinase assay
Details: compound 100.0 µM; ATP 20 µM

Row | SMILES | inhibition [%]
79 | O=C(Nc1cnc2[nH]ccn2c1=O)c1ccccc1 | 11
80 | CC(C)(C)Nc1c(COCc2ccccc2)nc2[nH]cnn12 | 4
81 | CC(=O)Nc1nc2cnc(-c3ccccc3)cn2n1 | 60
82 | CC1CN(c2nc3ccccn3c(=O)c2N)CC(C)O1 (stereo not drawn) | 1
83 | O=C(c1cccc(-c2cc3c(=O)[nH]cnc3s2)c1)N1CCOCC1 | 0

Target: ERBB4 (human) (UniProt Q15303)
Test: radiometric filter-binding kinase assay
Details: compound 100.0 µM; ATP 5 µM

Row | SMILES | inhibition [%]
84 | O=C(Nc1cnc2[nH]ccn2c1=O)c1ccccc1 | 25
85 | CC(C)(C)Nc1c(COCc2ccccc2)nc2[nH]cnn12 | 53
86 | CC(=O)Nc1nc2cnc(-c3ccccc3)cn2n1 | 19
87 | CC1CN(c2nc3ccccn3c(=O)c2N)CC(C)O1 (stereo not drawn) | 28
88 | O=C(c1cccc(-c2cc3c(=O)[nH]cnc3s2)c1)N1CCOCC1 | 33

Target: PHKG1 (human) (UniProt Q16816)
Test: radiometric filter-binding kinase assay
Details: compound 100.0 µM; ATP 50 µM

Sequence of PHKG1 (human) (Q16816 whole entry, looked up): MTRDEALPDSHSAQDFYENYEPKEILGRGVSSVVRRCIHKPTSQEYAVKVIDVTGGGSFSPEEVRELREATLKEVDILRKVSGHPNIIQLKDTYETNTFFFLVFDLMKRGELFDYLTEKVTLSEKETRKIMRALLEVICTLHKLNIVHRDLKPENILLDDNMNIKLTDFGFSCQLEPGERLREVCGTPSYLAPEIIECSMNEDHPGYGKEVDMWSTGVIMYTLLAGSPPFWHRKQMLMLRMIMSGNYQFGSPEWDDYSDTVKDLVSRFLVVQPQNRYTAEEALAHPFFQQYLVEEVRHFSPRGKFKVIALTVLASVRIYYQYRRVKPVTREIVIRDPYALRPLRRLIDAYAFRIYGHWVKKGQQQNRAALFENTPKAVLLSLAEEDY

Row | SMILES | inhibition [%]
89 | O=C(Nc1cnc2[nH]ccn2c1=O)c1ccccc1 | 44
90 | CC(C)(C)Nc1c(COCc2ccccc2)nc2[nH]cnn12 | 10
91 | CC(=O)Nc1nc2cnc(-c3ccccc3)cn2n1 | 68
92 | CC1CN(c2nc3ccccn3c(=O)c2N)CC(C)O1 (stereo not drawn) | 3
93 | O=C(c1cccc(-c2cc3c(=O)[nH]cnc3s2)c1)N1CCOCC1 | 9

Target: HIPK2 (human) (UniProt Q9H2X6)
Test: radiometric filter-binding kinase assay
Details: compound 100.0 µM; ATP 5 µM

Row | SMILES | inhibition [%]
94 | O=C(Nc1cnc2[nH]ccn2c1=O)c1ccccc1 | 7
95 | CC(C)(C)Nc1c(COCc2ccccc2)nc2[nH]cnn12 | 18
96 | CC(=O)Nc1nc2cnc(-c3ccccc3)cn2n1 | 49
97 | CC1CN(c2nc3ccccn3c(=O)c2N)CC(C)O1 (stereo not drawn) | 0
98 | O=C(c1cccc(-c2cc3c(=O)[nH]cnc3s2)c1)N1CCOCC1 | 38
